What was measured:
[1] = test system: PC-3; assay: Flow cytometric annexin V/PI analysis of apoptosis, PC-3; type: cell-based, human; conditions: IC50 of compound, 72 h, mean ± SEM
Method: (§1) The apoptosis-dependent […] was determined by quantification of annexin-stained apoptotic cells using the FITC signal detector (FL1) against the phycoerythrin emission signal detector (FL2) (Supplementary Page S55). […]
(§2) MTT method was used for assaying cell viability 25. Twenty microliters of 5 mg/ml MTT (Sigma, USA) was added to each well and the plate was incubated at […]
(§3) 37 °C for 3 h. […]
(§4) Graphpad Instat software.
(§5) Determination of the anticancer activity
(§6) Anticancer effect of the above-mentioned compounds was evaluated using four human cancer cell lines. Colon cancer cells (Caco-2) were maintained in DMEM (Lonza, USA) containing 10% FBS while myeloid leukemia cell line (NFS-60), liver cancer cell line (HepG-2) and prostate cancer cell line (PC-3) were cultured in RPMI-1640 (Lonza, USA) supplemented with 10% FBS. All cancer cells (5x10^3 cells/well) were seeded in sterile 96-well plates. After 24h, serial concentrations of the tested compounds and Dox were incubated with four cancer cell lines for 72 h at 37 °C in 5% CO2 incubator. MTT method was done as described above. The Graphpad Instat software was used for calculating the half maximal inhibitory concentration (IC50) values. […]
(§7) Flow cytometric analysis of apoptosis
(§8) Caco-2, PC-3 and NFS-60 cell lines. After trypsinization, the untreated and treated cells were incubated with annexin V/PI for 15 min. Then cells were fixed and incubated with streptavidin-fluorescein (5 µg/mL) for 15 min. The apoptosis-dependent anticancer effect was determined by quantification of annexin-stained apoptotic cells using the FITC signal detector (FL1) against the phycoerythrin emission signal detector (FL2). […]

[2] = test system: Colon cancer cells (Caco-2); assay: MTT anticancer activity, Caco-2; type: cell-based, human; conditions: for IC50: Homo sapiens, Caco-2, 72 h, MTT, mean ± SEM; for Caco-2 LE: ligand efficiency from IC50 and number of heavy atoms; for Caco-2 LLE: ligand lipophilic efficiency, potency in terms of lipophilicity; for Caco-2 SI: selectivity index, Wi-38 versus Caco-2
In short: (§9)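 Cells seeded at 5x10^3/well (Caco-2 in DMEM, others in RPMI-1640, 10% FBS) and exposed to serial compound concentrations for 72 h at 37 °C, 5% CO2, starting 24 h after seeding. MTT (3 h, 37 °C) read at 570 nm after DMSO solubilisation; IC50 calculated from viability.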

[3] = test system: NFS-60; assay: Flow cytometric annexin V/PI analysis of apoptosis, NFS-60; type: cell-based, human; conditions: IC50 of compound, 72 h, mean ± SEM
Method: as §1, §2, §3, §4, §5, §6, §7, §8

[4] = test system: prostate cancer cell line (PC-3); assay: MTT anticancer activity, PC-3; type: cell-based, human; conditions: Homo sapiens, 72 h, PC-3, 72 h, mean ± SEM
In short: as §9

[5] = target: PIM-1 kinase (Homo sapiens, UniProt P11309); assay: Mechanism of PIM-1 kinase inhibition, Lineweaver–Burk double-reciprocal plot; type: biochemical; set-up: purchased Promega Corporation #V4032; conditions: for Vmax compared with control: Y-intercept
Sequence of PIM-1 kinase (P11309 whole entry): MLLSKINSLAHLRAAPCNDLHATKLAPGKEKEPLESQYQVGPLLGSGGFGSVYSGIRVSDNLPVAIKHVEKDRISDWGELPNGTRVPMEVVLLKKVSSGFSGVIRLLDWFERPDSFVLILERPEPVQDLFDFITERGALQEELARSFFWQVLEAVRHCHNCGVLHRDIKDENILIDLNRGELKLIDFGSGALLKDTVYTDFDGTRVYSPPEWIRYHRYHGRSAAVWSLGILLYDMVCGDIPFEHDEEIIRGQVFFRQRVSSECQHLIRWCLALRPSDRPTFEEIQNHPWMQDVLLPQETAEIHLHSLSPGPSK

Row | IC50 [2] [nM] | Caco-2 LE [2] | Caco-2 LLE [2] | IC50 [4] [nM] | mechanism of PIM-1 kinase inhibition [5] | Vmax compared with control [5] | Compound | total percentage of the apoptotic cell population, PC-3 [1] [%] | Caco-2 SI [2] | total percentage of the apoptotic cell population, NFS-60 [3] [%]
1 | 33.7 ± 6 | 0.35 | 5.11 | 22.5 ± 2 | – | – | COc1ccc2[nH]c(=O)c(-c3cc(-c4cccc(O)c4)[nH]c(=O)c3C#N)cc2c1 [13c, 6-(3-Hydroxyphenyl)-4-(6-methoxy-2-oxo-1,2-dihydroquinolin-3-yl)-2-oxo-1,2-dihydropyridine-3-carbonitrile] | 57.91 ± 0.34 | 1.033 | 58.83 ± 0.36
2 | 14.1 ± 4 | 0.40 | 5.18 | 16.8 ± 0.1 | competitive inhibitors | the same Vmax in comparison with control | N#Cc1c(-c2cc3ccccc3[nH]c2=O)cc(-c2cccc(O)c2)nc1S [14a, 6-(3-Hydroxyphenyl)-2-mercapto-4-(2-oxo-1,2-dihydroquinolin-3-yl)pyridine-3-carbonitrile] | 56.545 ± 0.98 | 21.206 | 42.005 ± 0.32
3 | 45.3 ± 1 | 0.30 | 3.28 | 26.1 ± 4 | competitive inhibitors | the same Vmax in comparison with control | N#Cc1c(-c2cc3cc(Cl)ccc3nc2N2CCOCC2)cc(-c2cccc(O)c2)[nH]c1=O [5b, 4-(6-Chloro-2-morpholin-4-yl-quinolin-3-yl)-6-(3-hydroxyphenyl)-2-oxo-1,2-dihydropyridine-3-carbonitrile] | 50.7 ± 0.58 | 3.775 | 54.2 ± 0.47
4 | 36.1 ± 0.1 | 0.30 | 4.00 | 27.2 ± 3 | competitive inhibitors | the same Vmax in comparison with control | COc1ccc2nc(N3CCOCC3)c(-c3cc(-c4cccc(O)c4)[nH]c(=O)c3C#N)cc2c1 [5c, 6-(3-Hydroxyphenyl)-4-(6-methoxy-2-morpholin-4-yl-quinolin-3-yl)-2-oxo-1,2-dihydropyridine-3-carbonitrile] | 47.26 ± 0.92 | 19.861 | 51.53 ± 0.09

Row | Compound | IC50 [2] [nM] | Caco-2 LE [2] | Caco-2 LLE [2] | IC50 [4] [nM] | mechanism of PIM-1 kinase inhibition [5] | Vmax compared with control [5] | total percentage of the apoptotic cell population, PC-3 [1] [%] | Caco-2 SI [2] | total percentage of the apoptotic cell population, NFS-60 [3] [%]
5 | N#Cc1c(-c2cc3ccccc3[nH]c2=O)cc(-c2cccc(O)c2)[nH]c1=O [13a, 6-(3-Hydroxyphenyl)-2-oxo-4-(2-oxo-1,2-dihydroquinolin-3-yl)-1,2-dihydropyridine-3-carbonitrile] | 22.8 ± 1 | 0.39 | 5.31 | 20 ± 3 | both competitive and non-competitive inhibitor | reduced in Vmax value | 59.71 ± 0.82 | 1.118 | 59.23 ± 0.04

From publication PMC9848351, “Discovery of new pyridine-quinoline hybrids as competitive and non-competitive PIM-1 kinase inhibitors with apoptosis induction and caspase 3/7 activation capabilities” (Journal of Enzyme Inhibition and Medicinal Chemistry, 2023)
